Test results from patent publication US5395947A, “Platinum(II) complex and processes for preparing the same” (Sunkyong Industries, Ltd., priority 1991, dated 1995).

Columns and labels:
[1] = tested on: murine leukemia L1210; assay: Antitumor activity test on murine leukemia L1210 in vivo; design: species or system male BDF1 mice; conditions: days 1, 5, 9
Outline: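 Male BDF1 mice (6 weeks, 21±3 g; n=7) received 1×10^6 leukemia cells into the peritoneum on day 0, then test compound suspended or dissolved in 0.5% CMC i.p. on days 1, 5, 9. Activity expressed as T/C %, mean survival treated versus 0.5% CMC-injected controls.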

[2] = Test for water solubility; assay type: physicochemical; conditions: water
Excerpt: 3. Test for water solubility
A standard plot of UV absorbance(220 nm) vs. concentration was made; and employed to determine water-solubility.
The mixture was then passed through a 0.45 micron disposable membrane filter before dilution and UV measurement.

[3] = tested on: murine leukemia L1210 cells; assay: Growth inhibition test on cultured murine leukemia L1210 cells; assay type: cell-based; conditions: 48 hours, 37° C., Trypan blue viability
Outline: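 Read-out is Trypan blue (0.17%) viability versus compound-free controls. Cells, 1×10^5, were cultured 48 h at 37° C under 5% CO2 in RPMI 1640/10% FCS containing various compound concentrations.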

[4] = tested on: ICR mice; assay: Acute toxicity test; assay type: in vivo; design: Lethality: unit not given here; conditions: for Lethality: 10080 min
Outline: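 Single i.p. administration to ICR mice (7 weeks old, both sexes, n=6/group); appearance and mortality logged over 7 days, dead animals autopsied for gross pathology.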

## CC(C)C1O[C@H](CN)[C@@H](CN)O1.O=C1C[O][Pt][O]1 [Example 7, (glycolato-O,O')[(4R,5R)-4,5-bis(aminomethyl)-2-isopropyl-1,3-dioxolane]platinum(II)]
[1]; 3.1 mg/kg i.p.
  T/C (%): 155%
[1]; 6.2 mg/kg i.p.
  T/C (%): 166%
[1]; 12.5 mg/kg i.p.
  T/C (%): 191%
[1]; 25 mg/kg i.p.
  T/C (%): toxic
[1]; 50 mg/kg i.p.
  T/C (%): toxic
[2]
  Solubility in water: > 30 mg/mL
[3]
  IC50 (concentration required for 50% inhibition of growth): 0.06 µg/mL
[4]; female, 25.0 mg/kg i.p.
  Number of dead mice for 7 days: 0/6
  Number of dead mice, 1st day: 0/6
[4]; female, 32.5 mg/kg i.p.
  Number of dead mice for 7 days: 0/6
  Number of dead mice, 1st day: 0/6
[4]; female, 42.3 mg/kg i.p.
  Number of dead mice for 7 days: 1/6
  Number of dead mice, 1st day: 0/6
  Number of dead mice, 3rd day: 1/6
  Lethality: 16.7
[4]; female, 55.0 mg/kg i.p.
  Number of dead mice for 7 days: 2/6
  Number of dead mice, 1st day: 0/6
  Number of dead mice, 3rd day: 1/6
  Number of dead mice, 4th day: 1/5
  Lethality: 33.3
[4]; female, 71.4 mg/kg i.p.
  Number of dead mice for 7 days: 4/6
  Number of dead mice, 1st day: 0/6
  Number of dead mice, 3rd day: 3/6
  Number of dead mice, 4th day: 1/3
  Lethality: 66.7
[4]; male, 25.0 mg/kg i.p.
  Number of dead mice for 7 days: 0/6
  Number of dead mice, 1st day: 0/6
[4]; male, 32.5 mg/kg i.p.
  Number of dead mice for 7 days: 0/6
  Number of dead mice, 1st day: 0/6
[4]; male, 42.3 mg/kg i.p.
  Number of dead mice for 7 days: 2/6
  Number of dead mice, 1st day: 0/6
  Number of dead mice, 3rd day: 1/6
  Number of dead mice, 5th day: 1/5
  Lethality: 33.3
[4]; male, 55.0 mg/kg i.p.
  Number of dead mice for 7 days: 2/6
  Number of dead mice, 1st day: 0/6
  Number of dead mice, 3rd day: 1/6
  Number of dead mice, 4th day: 1/5
  Lethality: 33.3
[4]; male, 71.4 mg/kg i.p.
  Number of dead mice for 7 days: 4/6
  Number of dead mice, 1st day: 0/6
  Number of dead mice, 3rd day: 2/6
  Number of dead mice, 4th day: 2/4
  Lethality: 66.7

## CC1OC2C[NH2+][Pt-2]3([NH2+]CC2O1)[O]C(=O)C1(CCC1)C(=O)[O]3 [Example 22, cis-cyclobutane-1,1-dicarboxylato[(4R,5R)-4,5-bis(aminomethyl)-2-methyl-1,3-dioxolane]platinum(II)]
[1]; 6.2 mg/kg i.p.
  T/C (%): 125%
[1]; 12.5 mg/kg i.p.
  T/C (%): 129%
[1]; 25 mg/kg i.p.
  T/C (%): 247%
[1]; 50 mg/kg i.p.
  T/C (%): 262%
[1]; 100 mg/kg i.p.
  T/C (%): 382%
[2]
  Solubility in water: 24.9 mg/mL
[3]
  IC50 (concentration required for 50% inhibition of growth): 0.90 µg/mL
[4]; female, 94 mg/kg i.p.
  Number of dead mice for 7 days: 0/6
  Number of dead mice, 1st day: 0/6
[4]; female, 123 mg/kg i.p.
  Number of dead mice for 7 days: 1/6
  Number of dead mice, 1st day: 0/6
  Number of dead mice, 4th day: 1/6
  Lethality: 16.7
[4]; female, 160 mg/kg i.p.
  Number of dead mice for 7 days: 3/6
  Number of dead mice, 1st day: 0/6
  Number of dead mice, 4th day: 2/6
  Number of dead mice, 5th day: 1/4
  Lethality: 50.0
[4]; female, 208 mg/kg i.p.
  Number of dead mice for 7 days: 5/6
  Number of dead mice, 1st day: 0/6
  Number of dead mice, 3rd day: 1/6
  Number of dead mice, 4th day: 4/5
  Lethality: 83.3
[4]; female, 270 mg/kg i.p.
  Number of dead mice for 7 days: 6/6
  Number of dead mice, 1st day: 0/6
  Number of dead mice, 2nd day: 4/6
  Number of dead mice, 3rd day: 2/2
  Lethality: 100.0
[4]; male, 94 mg/kg i.p.
  Number of dead mice for 7 days: 0/6
  Number of dead mice, 1st day: 0/6
[4]; male, 123 mg/kg i.p.
  Number of dead mice for 7 days: 0/6
  Number of dead mice, 1st day: 0/6
[4]; male, 160 mg/kg i.p.
  Number of dead mice for 7 days: 4/6
  Number of dead mice, 1st day: 1/6
  Number of dead mice, 4th day: 1/5
  Number of dead mice, 5th day: 1/4
  Number of dead mice, 6th day: 1/3
  Lethality: 66.7
[4]; male, 208 mg/kg i.p.
  Number of dead mice for 7 days: 5/6
  Number of dead mice, 1st day: 0/6
  Number of dead mice, 4th day: 4/6
  Number of dead mice, 5th day: 1/2
  Lethality: 83.3
[4]; male, 270 mg/kg i.p.
  Number of dead mice for 7 days: 6/6
  Number of dead mice, 1st day: 0/6
  Number of dead mice, 2nd day: 2/6
  Number of dead mice, 3rd day: 4/4
  Lethality: 100.0

## CCC1OC2C[NH2+][Pt-2]3([NH2+]CC2O1)[O]C(=O)C1(CCC1)C(=O)[O]3 [Example 24, cis-cyclobutane-1,1-dicarboxylato[(4R,5R)-4,5-bis(aminomethyl)-2-ethyl-1,3-dioxolane]platinum(II)]
[1]; 6.2 mg/kg i.p.
  T/C (%): 122%
[1]; 12.5 mg/kg i.p.
  T/C (%): 130%
[1]; 25 mg/kg i.p.
  T/C (%): 193%
[1]; 50 mg/kg i.p.
  T/C (%): 208%
[1]; 100 mg/kg i.p.
  T/C (%): 391%
[2]
  Solubility in water: 12.0 mg/mL
[3]
  IC50 (concentration required for 50% inhibition of growth): 0.55 µg/mL
[4]; female, 160 mg/kg i.p.
  Number of dead mice for 7 days: 0/6
  Number of dead mice, 1st day: 0/6
[4]; female, 208 mg/kg i.p.
  Number of dead mice for 7 days: 0/6
  Number of dead mice, 1st day: 0/6
[4]; female, 270 mg/kg i.p.
  Number of dead mice for 7 days: 3/6
  Number of dead mice, 1st day: 0/6
  Number of dead mice, 2nd day: 1/6
  Number of dead mice, 3rd day: 1/5
  Number of dead mice, 5th day: 1/4
  Lethality: 50.0
[4]; female, 352 mg/kg i.p.
  Number of dead mice for 7 days: 5/6
  Number of dead mice, 1st day: 0/6
  Number of dead mice, 3rd day: 3/6
  Number of dead mice, 4th day: 2/3
  Lethality: 83.3
[4]; female, 457 mg/kg i.p.
  Number of dead mice for 7 days: 6/6
  Number of dead mice, 1st day: 0/6
  Number of dead mice, 2nd day: 4/6
  Number of dead mice, 3rd day: 2/2
  Lethality: 100.0
[4]; male, 160 mg/kg i.p.
  Number of dead mice for 7 days: 0/6
  Number of dead mice, 1st day: 0/6
[4]; male, 208 mg/kg i.p.
  Number of dead mice for 7 days: 1/6
  Number of dead mice, 1st day: 0/6
  Number of dead mice, 3rd day: 1/6
  Lethality: 16.7
[4]; male, 270 mg/kg i.p.
  Number of dead mice for 7 days: 5/6
  Number of dead mice, 1st day: 0/6
  Number of dead mice, 2nd day: 1/6
  Number of dead mice, 3rd day: 2/5
  Number of dead mice, 4th day: 1/3
  Number of dead mice, 5th day: 1/2
  Lethality: 83.3
[4]; male, 352 mg/kg i.p.
  Number of dead mice for 7 days: 6/6
  Number of dead mice, 1st day: 1/6
  Number of dead mice, 2nd day: 2/5
  Number of dead mice, 3rd day: 2/3
  Number of dead mice, 6th day: 1/1
  Lethality: 100.0
[4]; male, 457 mg/kg i.p.
  Number of dead mice for 7 days: 6/6
  Number of dead mice, 1st day: 0/6
  Number of dead mice, 2nd day: 2/6
  Number of dead mice, 3rd day: 4/6
  Lethality: 100.0
